# Source: patent US10849875B2, “Cancer specific lipid targeted peptidomimetics” (University of Houston System, priority 2015, dated 2020)
# Positions of bridges follow the written chain, without caps; N, C: chain ends. Non-standard residues stand in square brackets, D forms with d. Residues, ends and D or L forms follow the SMILES beside them. Chains are numbered I, II in the order given. Gly(N-piperonyl) = O=C(O)CNCc1ccc2c(c1)OCO2; N(4-MeOBn)Gly = COc1ccc(CNCC(=O)O)cc1; Nrpe = C[C@@H](NCC(=O)O)c1ccccc1; Nlys = NCCCCNCC(=O)O
# Assays:
# [1] = In vitro cellular activity of PS targeted peptoid derivatives; assay type: cell-based
# Description: Peptoid compounds include but are not limited to PPS1D1 (FIG. 15), PPS1-DE2 (FIG. 16), PPS1-RD1 (FIG. 17), PPS1-2P3H (FIG. 18), PPS1-4P3H (FIG. 19), PPS1-Tri-1 (FIG. 20), PPS1-Tet-1 (FIG. 21), and PPS2D1 (FIG. 22). […] PPS1D1 has a validated in vivo animal tumor burden activity.
# [2] = system: HCC4017, H460, HCC95, H1693, H1395 lung cancer cell lines; assay: Cell staining with Hoechst 33342 and propidium iodide (membrane integrity); assay type: cell-based, human
# Description: (§1) It was evaluated how PPS1D1 affects viability of these PS expressing cancer cell lines. While there are difficulties of narrowing down the exact mechanism of action of a compound targeting cell membrane lipids, whether PPS1D1 has any effect on cell membrane integrity was evaluated. Cells were treated with standard DNA staining dyes Propidium iodide (PI) and Hoechst 33342. While both bind DNA, only Hoechst is cell permeable. Therefore, when treating live cells only Hoechst will stain the nucleus while PI will stain the nucleus only if the cell membrane integrity is compromised. All the lung cancer cell lines and normal HBEC30KT cells were treated with these dyes in the presence of PPS1D1 (at 1 μM and 20 μM) or a control compound PC462D1 at 20 μM and evaluated fluorescence by microscopy without fixation. […] These observations indicate that 20 μM PPS1D1 is selectively cytotoxic to PS-positive lung cancer cells.
# (§2) 10,000 cells of HCC4017, H460, HCC95, H1693,H1395 and HBEC30KT were plated on chamber slides (Lab-Tek, Thermo Fisher, MA). On second day, cells were treated with PPS (1 μM and 20 μM), control PC462D1 (20 μM) and 0.005% Benzalkonium chloride (BAC) in RPMI medium with 10% FBS containing 3% BSA (KSFM media with 3% BSA for HBEC30KT). Chamber slides were washed with PBS three times. Cells were then stained with Hoechst 33342 (10 μg/ml) for 30 min in dark. Chamber slides were washed with 3× PBS. Cells were then stained with propidium iodide (1 mg/ml) for 15 mins. Cells were washed with 3× PBS and imaged using Fluorescence Microscope (Olympus BX-53).
# HBEC30KT cells = assay: as above; assay type: cell-based, human; conditions: 20 μM
# Description: as §1, §2
# HBEC3kt cells = assay: MTS cell viability assay; assay type: cell-based, human; conditions: serial dilutions
# Description: After confirming the binding and specificity of the PPS1 on HCC4017 lung cancer cells, whether this compound has any biological effects on HCC4017 lung cancer cells was assayed. The gold standard cell viability (MTS) assay was used. HCC4017 cells and HBEC30kt and HBEC3kt cells were grown in 96 well plates on day 1, then treated by serial dilution of PPS1 and control compound C462 on day 2, and the viable cell count was measured using MTS reagent on day 3. […] On one of the repetitive experiments of this assay, Cystinylated-PPS1 compound was included (FIG. 6A). This was the intermediate compound used to attach the FITC-malemide for binding assays described previously. […] The only difference between this Cystinylated-PPS1 and the original PPS1 compound was just a single cysteine amino acid at the C-terminal. […]
# A homo-dimeric version of PPS1 was synthesized. […] The resulting dimeric version of the PPS1 compound, PPS1D1 (FIG. 6C), and the analogous dimeric versions of scrambled PC2, PC2D1 (FIG. 6E), and control compound C462, PC462D1 (FIG. 82), were then evaluated for activity. […] As described above, HCC4017 cells and HBEC30kt and HBEC3kt cells were grown in 96 well plates on day 1, treated serial dilutions of PPS1, PPS1D1, C462 and C462D1 on day 2, and viable cell count was measured using MTS reagent on day 3. […]
structure (smiles),measurement,setting,value
COc1ccc(CN(CC(=O)N(CCCCN)CC(=O)N[C@@H](CCCCN)C(=O)N[C@H](CCCCN)C(=O)N[C@@H](CCSC)C(=O)NCCCC[C@H](NC(=O)[C@H](CCSC)NC(=O)[C@@H](CCCCN)NC(=O)[C@H](CCCCN)NC(=O)CN(CCCCN)C(=O)CN(Cc2ccc(OC)cc2)C(=O)CN(C(=O)CN(Cc2ccc3c(c2)OCO3)C(=O)CN[C@H](C)c2ccccc2)[C@H](C)c2ccccc2)C(N)=O)C(=O)CN(C(=O)CN(Cc2ccc3c(c2)OCO3)C(=O)CN[C@H](C)c2ccccc2)[C@H](C)c2ccccc2)cc1 [PPS1D1] (I: H-[Nrpe][Gly(N-piperonyl)][Nrpe][N(4-MeOBn)Gly][Nlys]K[dK]MK-NH2 / II: H-[Nrpe][Gly(N-piperonyl)][Nrpe][N(4-MeOBn)Gly][Nlys]K[dK]M; amide I:9-II:C; N-terminus assumed),in vitro cellular activity,[1],validated in vitro cellular activity
same,PI / Hoechst staining of lung cancer cells,[2]; 1 μM,only show staining with Hoechst dye
same,PI / Hoechst staining of lung cancer cells,[2]; 20 μM,staining of cells with PI
same,PI staining of normal HBEC30KT cells,HBEC30KT cells,not observed
same,activity on normal HBEC3kt cells,HBEC3kt cells,did not have any activity
